This is an account of results in patent US10150770B2, “Crystal form of bisulfate of JAK inhibitor and preparation method therefor” (Jiangsu Hengrui Medicine Co., Ltd., priority 2014, dated 2018).

The structures appear in SMILES notation.

The series can be described thus: Stability test of solid forms spread flat in the air (lighting, heating, high humidity), purity detected by HPLC. Format: physicochemical. The following applies: for purity as detected by HPLC, 40° C.: heating 40° C.; for purity as detected by HPLC, 60° C.: heating 60° C.; for purity as detected by HPLC, RH 75%: high humidity RH 75%; for purity as detected by HPLC, RH 90%: high humidity RH 90%; for purity as detected by HPLC, Lighting: lighting 4500 Lux. The protocol: The amorphous sample prepared in Example 1 and crystal form I prepared in Example 3 were spread flat in the air to test their stability under the conditions of lighting (4500 Lux), heating (40° C., 60° C.), and high humidity (RH 75%, RH 90%).

Consider `COc1nsc(NC(=O)N2C[C@H]3C[C@H](N(C)c4ncnc5[nH]ccc45)C[C@H]3C2)n1.O=S(=O)(O)O` [Crystal form I, (3aR,5s,6aS)—N-(3-methoxyl-1,2,4-thiadiazole-5-yl)-5-(methyl(7H-pyrrolo[2,3-d]pyrimidine-4-yl)amino)hexahydrocyclopenta[c]pyrrole-2(1H)-formamide bisulfate], for which the “effect of high humidity on stability” value is given as “does not have much effect”. For the setting “day 0”, the “purity as detected by HPLC, 40° C.” value turned out to be 99.45%; the “purity as detected by HPLC, 60° C.” value came to 99.45%; the “purity as detected by HPLC, RH 75%” value is on record as 99.45%; the “purity as detected by HPLC, RH 90%” value amounted to 99.45%. Further, where the note is “day 0”, the “purity as detected by HPLC, Lighting” value worked out at 99.45%. Further, under “day 5”, the “purity as detected by HPLC, 40° C.” value came to 99.42%; the “purity as detected by HPLC, 60° C.” value is 99.36%; the “purity as detected by HPLC, RH 75%” value is 99.42%; the “purity as detected by HPLC, RH 90%” value came out at 99.42%. For the same molecule, the “purity as detected by HPLC, Lighting” value (day 5) stood at 99.40%. For the same molecule, where the note is “day 10”, the “purity as detected by HPLC, 40° C.” value was determined as 99.42%; the “purity as detected by HPLC, 60° C.” value turned out to be 99.35%; the “purity as detected by HPLC, RH 75%” value turned out to be 99.40%; the “purity as detected by HPLC, RH 90%” value is listed as 99.39%. In addition, where the note is “day 10”, the “purity as detected by HPLC, Lighting” value was 99.39%. Moreover, the “stability under the conditions of lighting and high temperature” value (lighting and high temperature, compared with the amorphous sample) is “significantly better than that of the amorphous sample”.

As to `COc1nsc(NC(=O)N2C[C@H]3C[C@H](N(C)c4ncnc5[nH]ccc45)C[C@H]3C2)n1.O=S(=O)(O)O` [Amorphous Form, (3aR,5s,6aS)—N-(3-methoxyl-1,2,4-thiadiazole-5-yl)-5-(methyl(7H-pyrrolo[2,3-d]pyrimidine-4-yl)amino)hexahydrocyclopenta[c]pyrrole-2(1H)-formamide bisulfate], the “effect of high humidity on stability” value was “does not have much effect”. Where the note is “day 0”, the “purity as detected by HPLC, 40° C.” value came out at 98.33%; the “purity as detected by HPLC, 60° C.” value is 98.33%; the “purity as detected by HPLC, RH 75%” value is 98.33%; the “purity as detected by HPLC, RH 90%” value came to 98.33%. Besides, the “purity as detected by HPLC, Lighting” value (day 0) turned out to be 98.33%. Further, where the note is “day 5”, the “purity as detected by HPLC, 40° C.” value came to 97.65%; the “purity as detected by HPLC, 60° C.” value stood at 94.53%; the “purity as detected by HPLC, RH 75%” value was determined as 98.32%; the “purity as detected by HPLC, RH 90%” value was found to be 99.14%. Under “day 5”, the “purity as detected by HPLC, Lighting” value is recorded as 98.04%. Also, for the setting “day 10”, the “purity as detected by HPLC, 40° C.” value worked out at 96.61%; the “purity as detected by HPLC, 60° C.” value worked out at 92.12%; the “purity as detected by HPLC, RH 75%” value is 98.16%; the “purity as detected by HPLC, RH 90%” value is recorded as 99.12%. For the same molecule, the “purity as detected by HPLC, Lighting” value (day 10) is reported as 97.51%.
